Reference: patent US20250179043A1, “PROCESSES FOR THE PREPARATION OF N-(1-METHYLCYCLOPROPYL)-2-(3-PYRIDINYL)-2H-INDAZOLE-4-CARBOXAMIDE AND INTERMEDIATES THEREOF” (FMC CORPORATION, priority 2022, published 2025)
Values belong to the compound of their own block, whether it stands above or below them.

Tests used:
[1] = Form A and Form B interconversion (competitive) slurries, final form by XRPD; format: physicochemical
Experimental: Relative thermodynamic stabilities of anhydrous/non-solvated Forms A and B were studied at 2-8° C., room temperature (RT) and at 71-72° C. via interconversion (competitive) slurries. In these slurries, a given solvent system was pre-saturated with compound 092 (Form A+minor Form B) at the stated temperature, and a portion of the liquid phase was filtered into a mixture of solids containing relatively equal amounts of Form A and Form B. Interconversion slurries at 2-8° C. and RT were allowed to stir for 22 days, while slurries at 71-72° C. stirred for shorter duration (2-4 days). […] The results are reported in table 13 below where: liquid phase for each slurry was pre-saturated using as-received Form A+minor Form B; solvent ratios are v/v; water activity values were calculated using UNIFAC calculator at RT; and times and temperatures are approximate.

[2] = Stable polymorph form screen (slurry experiments, final form by XRPD); format: physicochemical; settings: for Final form (XRPD Result): start Form A + minor Form B
Experimental: Slurry experiments were conducted to identify the stable form at various conditions. In these experiments, saturated solutions in various solvents containing excess undissolved solids (starting with Form A+minor Form B) were stirred for extended durations. Slurries at room temperature (RT) and 2-8° C. were typically conducted for approximately 2 weeks, while slurries at 72-73° C. were stirred for a shorter duration (1 day) to minimize the potential for decomposition. […] The results are shown in the table 12 where the time and temperatures are approximate.

Final form (XRPD Result) ([1]; competitive slurry in EtOH, 71-72° C., 2 d): Form A | Final form (XRPD Result) ([1]; competitive slurry in EtOH, RT, 22 d): Form A | Final form (XRPD Result) ([1]; competitive slurry in NMP/water 80:20 (aw 0.39), 2-8° C., 22 d): Form A | Final form (XRPD Result) ([1]; competitive slurry in NMP/water 80:20 (aw 0.39), 71-72° C., 2 d): Form A | Final form (XRPD Result) ([1]; competitive slurry in NMP/water 80:20 (aw 0.39), RT, 22 d): Form A
Structure (SMILES): CC1(NC(=O)c2cccc3nn(-c4cccnc4)cc23)CC1 [Form A + Form B, N-(1-methylcyclopropyl)-2-(3-pyridinyl)-2H-indazole 4-carboxamide]

Relative thermodynamic stability of Forms A and B ([1]; between 2° C. and 72° C., from competitive slurries): thermodynamically stable form | Relative stability of polymorph forms ([2]; between 2° C. and 73° C., from slurries): more stable than Form B
Structure (SMILES): CC1(NC(=O)c2cccc3nn(-c4cccnc4)cc23)CC1 [Form A, N-(1-methylcyclopropyl)-2-(3-pyridinyl)-2H-indazole 4-carboxamide]

Final form (XRPD Result) ([2]; slurry in DCM, RT, 13 d): Form A | Final form (XRPD Result) ([2]; slurry in DMF, RT, 13 d): Form A | Final form (XRPD Result) ([2]; slurry in EtOH, 72-73° C., 1 d): Form A | Final form (XRPD Result) ([2]; slurry in EtOH, RT, 13 d): Form A | Final form (XRPD Result) ([2]; slurry in IPA, RT, 13 d): Form A | Final form (XRPD Result) ([2]; slurry in MEK, 72-73° C., 1 d): Form A | Final form (XRPD Result) ([2]; slurry in MEK, RT, 13 d): Form A | Final form (XRPD Result) ([2]; slurry in MeOH, 2-8° C., 14 d): Form A | Final form (XRPD Result) ([2]; slurry in MeOH, RT, 13 d): Form A | Final form (XRPD Result) ([2]; slurry in acetone, RT, 13 d): Form A
Structure (SMILES): CC1(NC(=O)c2cccc3nn(-c4cccnc4)cc23)CC1 [Compound 092, N-(1-methylcyclopropyl)-2-(3-pyridinyl)-2H-indazole 4-carboxamide]
